Laboratory results from patent publication US6353006B1, “Substituted 2-arylimino heterocycles and compositions containing them, for use as progesterone receptor binding agents” (Bayer Corporation, priority 1999, dated 2002).

Which melting point does the source give for CCc1cc(C(=O)O)ccc1N=C1SCC2(CCCC2)N1C1CCCC1 [Entry 253, 2-(4-carboxy-2-ethylphenylimino)-1-cyclopentyl-3-thia-1-azaspiro[4.4]nonane] here?
The melting point was 208 to 209 °C.

With CCc1cc(/C=C/[N+](=O)[O-])ccc1N=C1SCC2(CCCC2)N1C1CCCC1 [Entry 269, 2-(2-ethyl-4-((1E)-2-nitrovinyl)phenylimino)-1-cyclopentyl-3-thia-1-azaspiro[4.4]nonane] as the molecule, how does the melting point read?
Its melting point is 141 to 142 °C.

Which melting point does the source give for Cc1cc([N+](=O)[O-])ccc1N=C1SC(=O)CN1CC(C)C [Entry 310, 2-(2-methyl-4-nitrophenylimino)-3-isobutyl-1,3-thiazolidin-5-one] here?
The melting point was 152 °C.

Which melting point does the source give for CCc1cc(C(C)=O)ccc1N=C1SCC2(CCCC2)N1C1CCCC1 [Entry 255, 2-(4-acetyl-2-ethylphenylimino)-1-cyclopentyl-3-thia-1-azaspiro[4.4]nonane] here?
Its melting point is 114 to 115 °C.

For CCc1cc(C#N)ccc1N=C1OCC(C)(C)N1C1CCCC1 [Entry 319, 2-(4-cyano-2-ethylphenylimino)-3-cyclopentyl-4,4-dimethyl-1,3-oxazolidine], which melting point is on record?
The melting point was 112 to 114 °C.

For CCc1cc(C=C(C#N)C#N)ccc1N=C1SCC2(CCCC2)N1C1CCCC1 [Entry 271, 2-(2-ethyl-4-(2,2-dicyanovinyl)phenylimino)-1-cyclopentyl-3-thia-1-azaspiro[4.4]nonane], which melting point is on record?
The melting point was 135 to 136 °C.
